These results are taken from US5322848A, “N-acyl-substituted azacyclic compounds, processes for their preparation, and their use as pharmaceuticals” (Dr. Lo Zembeletti S.p.A., priority 1989, dated 1994).

Counter-ions that a name gives are not always drawn.

The term ED50 denotes the dose that gives a 50% effect, or the effect in half of the subjects.

Common to all, as to format: in vivo, Male Charles River mice (Swiss Strain)
In test [1] the test system is mice (tail-flick). Description: Tail-flick test in mice. The following applies: 30 min pretreatment, data referred to the free base; for ANALGESIA MOUSE TAIL-FLICK, % at 10 mg: 10 mg (mg/kg sc); for ED50: Mus musculus, sc, 0.5 h, subcutaneous, read-out: ANALGESIA MOUSE TAIL-FLICK ED50. As to the method: (§1) B) Tail-flick test in mice
(§2) The methodology employed is based on that described by D'Amour and Smith, J. Pharmacol. Exp. Ther. 72, 74/1941.
(§3) Males Charles River mice (Swiss Strain), 22-34 g body weight were used. Animals were allowed food and water ad libitum and were randomized into groups of 10 prior to experimentation.
Test compounds were dissolved in either distilled water or distilled water plug 0. 1M AMS and administered by the subcutaneous route in a final volume of 10 ml/Kg. Control animals received 10 ml/kg of the appropriate vehicle alone. Following a pretreatment period of 30 min., the mice were again placed under the heat source and the reaction tine re-determined.
(§4) Percentage quantal protection was determined as the number of mice in which the reaction time was doubled compared to pretreatment values, expressed as a percentage of the total number of mice in the group.
For orientation: Hot-plate and tail-flick tests time the reaction to a heat stimulus.

In test [2] the test system is mice (p-phenylquinone-induced abdominal writhing). Description: P-phenylquinone-induced abdominal writhing test in mice. To be noted: Mus musculus, sc, 20 min; subcutaneous; 20 min pretreatment; data referred to the free base; read-out: ANALGESIA MOUSE WRITHING ED50. Here is the method:
A) P-phenylquinone-induced abdominal writhing rest in mice
The methodology employed is based on that described by Sigmund et al, Proc. Soc. Exptl. Biol. 95, 729/1957, modified by Milne and Twomey, Agents and Actions, 10, 31/1980.
Male Charles River mice (Swiss Strain), 25-36 g body weight, were used. Animals were allowed food and water ad libitum and were randomized into groups of 10 prior to experimentation. Test compounds were dissolved in either distilled water or distilled water plus 0.1 M AMS, and administered by the subcutaneous route in a final volume of 10 ml/Kg. Control animals received 10 ml/Kg of the appropriate vehicle alone. Following a pretreatment period of 20 min., mice were injected intraperitoneally with p-phenylquinone, 2 mg/Kg at 37° C. in a final volume of […]. […] During this period the number of abdominal writhing responses per animal were recorded where writhing consists of an intermittent contraction of the abdomen associated with hind leg extension.
The degree of antinociceptive protection afforded by the test co mound was determined as the mean number of writhing responses observed in the treated group (T) expressed as a percentage of the mean number of writhing response in the control group (C) according to the following formula:
[1-(T/C]×100%=% graded protection

For test [3], the system named is mice (tail-flick). The test is described as follows: Duration of action, mouse tail-flick graded, % activity at MTFQ ED50. The following applies: sc, data referred to the free base. As to the method: as §1, §2, §3
Test compounds were dissolved in either distilled water or distilled water plug 0. 1M AMS and administered by the subcutaneous route in a final volume of 10 ml/Kg. Control animals received 10 ml/kg of the appropriate vehicle alone. […]
as §4

On to `C[C@]1(O)CCN(C[C@H]2CCCCN2C(=O)Cc2ccc(Cl)c(Cl)c2)C1.Cl` [Example 9, (R,S)-1-(3,4-dichlorophenyl)acetyl-2-(3-hydroxy-3-methylpyrrolidin-1-yl) methyl piperidine hydrochloride], for which the “ANALGESIA MOUSE TAIL-FLICK, % at 10 mg” value in test [1] is listed as 40%.

As for `CC1(C)CCN(C(=O)Cc2ccc3c(c2)CCCC3=O)C(CN2CCC(F)C2)C1` (stereo not drawn) [Example 25, 1-[1-oxo-3,4-dihydro-(2H)-napht-6-yl]acetyl-2-(3-fluoropyrrolidin-1-yl)methyl-4,4-dimethyl piperidine hydrochloride], the figures for the 50% effective dose (ED50) in test [2] and in test [1] were 0.005 mg/kg and 0.47 mg/kg, respectively. Besides, the “DURATION OF ACTION M. TAIL-FLICK GRADED % ACTIVITY AT MTFQ ED50, 30'” value in test [3] was found to be 74%. Besides, the “DURATION OF ACTION M. TAIL-FLICK GRADED % ACTIVITY AT MTFQ ED50, 90'” value in test [3] is on record as 56%.

Take `O=C1CCCc2cc(CC(=O)N3CCCCC3CN3CCC(F)C3)ccc21` (stereo not drawn) [Example 22, 1-[1-oxo-3,4-dihydro-(2H)-napht-6-yl]acetyl-2-(3-fluoropyrrolidin-1-yl)methyl piperidine hydrochloride]: the values for the ED50 in test [2] and in test [1] were 0.005 mg/kg and 0.065 mg/kg, respectively. Moreover, the “DURATION OF ACTION M. TAIL-FLICK GRADED % ACTIVITY AT MTFQ ED50, 30'” value in test [3] was 75%. Also, the “DURATION OF ACTION M. TAIL-FLICK GRADED % ACTIVITY AT MTFQ ED50, 90'” value in test [3] is on record as 40%.

In the case of `CC1(C)CCCN(C(=O)Cc2ccc(C(F)(F)F)cc2)C1CN1CCC(F)C1` (stereo not drawn) [Example 23, 1-(4-trifluoromethylphenyl)acetyl-2-(3-fluoropyrrolidin-1-yl) methyl-3,3-dimethylpiperidine hydrochloride], the figures for the 50% effective dose (ED50) in test [2] and in test [1] were 0.003 mg/kg and 0.005 mg/kg, respectively. Also, the “DURATION OF ACTION M. TAIL-FLICK GRADED % ACTIVITY AT MTFQ ED50, 30'” value in test [3] came out at 90%. In addition, the “DURATION OF ACTION M. TAIL-FLICK GRADED % ACTIVITY AT MTFQ ED50, 90'” value in test [3] came to 86%.

For `CC1(C)CCCN(C(=O)Cc2ccc(Cl)c(Cl)c2)C1CN1CCC(O)C1` (stereo not drawn) [Example 6, 1-(3,4-dichlorophenyl)acetyl-2-(3-hydroxypyrrolidin-1-yl)methyl-3,3-dimethyl piperidine hydrochloride], the median effective dose (ED50) in test [2] was 0.081 mg/kg. Further, the median effective dose (ED50) in test [1] came to 0.233 mg/kg. In addition, in test [3], the “DURATION OF ACTION M. TAIL-FLICK GRADED % ACTIVITY AT MTFQ ED50, 30'” value is listed as 87% and the “DURATION OF ACTION M. TAIL-FLICK GRADED % ACTIVITY AT MTFQ ED50, 90'” value is listed as 100%.

Consider `COC1CCN(CC2CCCCN2C(=O)Cc2ccc(C(F)(F)F)cc2)C1` (stereo not drawn) [Example 20, 1-(4-trifluoromethylphenyl)acetyl-2-(3-methoxypyrrolidin-1-yl) methyl piperidine], for which, in test [1], the “ANALGESIA MOUSE TAIL-FLICK, % at 10 mg” value was found to be 80%.

On to `O=C(Cc1ccc(Cl)c(Cl)c1)N1CCCCC1CN1CCC(F)C1` (stereo not drawn) [Example 18, 1-(3,4-dichlorophenyl)acetyl-2-(3-fluoropyrrolidin-1-yl)methyl piperidine hydrochloride], for which the median effective dose (ED50) in test [2] was found to be 0.002 mg/kg. The ED50 in test [1] was 0.021 mg/kg. In test [3], the “DURATION OF ACTION M. TAIL-FLICK GRADED % ACTIVITY AT MTFQ ED50, 30'” value was 80% and the “DURATION OF ACTION M. TAIL-FLICK GRADED % ACTIVITY AT MTFQ ED50, 90'” value was 34%.

For the molecule `O=C1CCCc2cc(CC(=O)N3CCCCC3CN3CCC(O)C3)ccc21` (stereo not drawn) [Example 17, 1-[1-oxo-3,4-dihydro-(2H)-napht-6-yl]acetyl-2-(3-hydroxy-pyrrolidin-1-yl)methyl piperidine], the ED50 in test [2] was 1.78 mg/kg; in test [1], 3.24 mg/kg. Moreover, the “DURATION OF ACTION M. TAIL-FLICK GRADED % ACTIVITY AT MTFQ ED50, 30'” value in test [3] is reported as 78%. The “DURATION OF ACTION M. TAIL-FLICK GRADED % ACTIVITY AT MTFQ ED50, 90'” value in test [3] is given as 80%.

As for `CC1(C)CN(C(=O)Cc2ccc(Cl)c(Cl)c2)C(CN2CCC(O)C2)c2ccccc21` (stereo not drawn) [Example 14, 1-(3-hydroxypyrrolidin-1-yl)methyl-2-(3,4-dichlorophenyl)acetyl 4,4-dimethyl-1,2,3,4-tetrahydroisoquinoline hydrochloride], the ED50 came to 0.087 mg/kg in test [2] and 0.898 mg/kg in test [1]. In addition, the “DURATION OF ACTION M. TAIL-FLICK GRADED % ACTIVITY AT MTFQ ED50, 30'” value in test [3] is recorded as 93%. The “DURATION OF ACTION M. TAIL-FLICK GRADED % ACTIVITY AT MTFQ ED50, 90'” value in test [3] is reported as 85%.

In the case of `COC1CCN(CC2CCCCN2C(=O)Cc2ccc(Cl)c(Cl)c2)C1` (stereo not drawn) [Example 19, 1-(3,4-dichlorophenyl)acetyl-2-(3-methoxypyrrolidin-1-yl)methyl piperidine], in test [1], the “ANALGESIA MOUSE TAIL-FLICK, % at 10 mg” value was 80%.

For the molecule `CC1(C)CCN(C(=O)Cc2ccc(Cl)c(Cl)c2)C(CN2CCC(O)C2)C1` (stereo not drawn) [Example 7, 1-(3,4-dichlorophenyl)acetyl-2-(3-hydroxypyrrolidin-1-yl)methyl-4,4-dimethyl piperidine hydrochloride hemihydrate], in test [2], the 50% effective dose (ED50) was 0.037 mg/kg. Also, in test [1], the median effective dose (ED50) amounted to 0.25 mg/kg. For the same molecule, in test [3], the “DURATION OF ACTION M. TAIL-FLICK GRADED % ACTIVITY AT MTFQ ED50, 30'” value was found to be 84% and the “DURATION OF ACTION M. TAIL-FLICK GRADED % ACTIVITY AT MTFQ ED50, 90'” value stood at 74%.

With `CC1(C)CCCN(C(=O)Cc2ccc(C(F)(F)F)cc2)C1CN1CCC(O)C1` (stereo not drawn) [Example 5, 1-(4-trifluoromethylphenyl)acetyl-2-(3-hydroxypyrrolidin-1-yl) methyl-3,3-dimethyl piperidine hydrochloride], the results for the ED50 in test [2] and in test [1] were 0.089 mg/kg and 0.225 mg/kg, respectively. The “DURATION OF ACTION M. TAIL-FLICK GRADED % ACTIVITY AT MTFQ ED50, 30'” value in test [3] is 78%. Further, the “DURATION OF ACTION M. TAIL-FLICK GRADED % ACTIVITY AT MTFQ ED50, 90'” value in test [3] was found to be 82%.
